Paper PMC4038645 (Cancer, 2014)
Where two headings read alike, the source gives them in different places. Marks after values point to notes of the source that are not given here.

How the values were obtained:
CYP3A4 = conditions: cited from earlier work
ABCG2 = conditions: cited from earlier work
ABCB1 = conditions: cited from earlier work
[1] = Plasma pharmacokinetics of sunitinib and N-desethyl sunitinib; format: in vivo, human; conditions: for half-life: n=1
[2] = phase III trial, 50mg/day, cited from earlier work
[3] = test system: solid or hematologic malignancy; assay: Response assessment after every two cycles; format: in vivo, human; conditions: 17 patients evaluable for response
[4] = human, in vivo, 6 weeks (cycle 1)

Structure (SMILES): O=C1Nc2ccc(Cl)cc2[C@@](C#CC2CC2)(C(F)(F)F)O1 [efavirenz]
- induction of CYP3A4 (CYP3A4): known inducer

Structure (SMILES): CCNCCNC(=O)c1c(C)[nH]c(/C=C2\C(=O)Nc3ccc(F)cc32)c1C [N-desethyl sunitinib]
- substrate for ABCG2 drug transporter (ABCG2): substrates
- substrate for ABCB1 drug transporter (ABCB1): substrates
- decrease in AUC0–24h compared to NNRTI ([1]; human, in vivo): 40%
- decrease in Cmax compared to NNRTI ([1]; human, in vivo): 48%
- increase in AUC0–24h compared to NNRTI ([1]; human, in vivo): 390%
- increase in Cmax compared to NNRTI ([1]; human, in vivo): 410%

Structure (SMILES): CCN(CC)CCNC(=O)c1c(C)[nH]c(/C=C2\C(=O)Nc3ccc(F)cc32)c1C [sunitinib, Sunitinib malate]
- substrate for ABCG2 drug transporter (ABCG2): substrates
- substrate for ABCB1 drug transporter (ABCB1): substrates
- rate of grade 3 or 4 neutropenia ([2]; gastrointestinal stromal tumors): 10%
- rate of grade 3 or 4 neutropenia ([2]; primitive neuroectodermal tumors): 16%
- rate of grade 3 or 4 neutropenia ([2]; renal cell carcinoma): 17%
- ALT/AST Elevation All Grade (%) (human, in vivo): 2 (11)
- ALT/AST Elevation ≥G3 (%) (human, in vivo): 0 (0)
- Abdominal Pain All Grade (%) (human, in vivo): 2 (11)
- Abdominal Pain ≥G3 (%) (human, in vivo): 0 (0)
- Anemia All Grade (%) (human, in vivo): 3 (16)
- Anemia ≥G3 (%) (human, in vivo): 1 (5)
- Anorexia ≥G3 (%) (human, in vivo): 0 (0)
- Constipation All Grade (%) (human, in vivo): 2 (11)
- Constipation ≥G3 (%) (human, in vivo): 0 (0)
- Cough ≥G3 (%) (human, in vivo): 0 (0)
- Diarrhea All Grade (%) (human, in vivo): 9 (47)
- Diarrhea ≥G3 (%) (human, in vivo): 1 (5)
- Epistaxis ≥G3 (%) (human, in vivo): 0 (0)
- Fatigue All Grade (%) (human, in vivo): 8 (42)
- Fatigue ≥G3 (%) (human, in vivo): 0 (0)
- Headache All Grade (%) (human, in vivo): 2 (11)
- Headache ≥G3 (%) (human, in vivo): 0 (0)
- Hypertension All Grade (%) (human, in vivo): 4 (21)
- Hypertension ≥G3 (%) (human, in vivo): 0 (0)
- Hypopigmentation All Grade (%) (human, in vivo): 2 (11)
- Hypopigmentation ≥G3 (%) (human, in vivo): 0 (0)
- Mucositis All Grade (%) (human, in vivo): 3 (16)
- Mucositis ≥G3 (%) (human, in vivo): 0 (0)
- Myalgia/Limb Pain All Grade (%) (human, in vivo): 2 (11)
- Myalgia/Limb Pain ≥G3 (%) (human, in vivo): 0 (0)
- Nausea/Vomiting All Grade (%) (human, in vivo): 6 (32)
- Nausea/Vomiting ≥G3 (%) (human, in vivo): 0 (0)
- Neutropenia All Grade (%) (human, in vivo): 10 (53)
- Neutropenia ≥G3 (%) (human, in vivo): 6 (32)
- Rash ≥G3 (%) (human, in vivo): 0 (0)
- Thrombocytopenia All Grade (%) (human, in vivo): 3 (16)
- Thrombocytopenia ≥G3 (%) (human, in vivo): 0 (0)
- Wound Dehiscence All Grade (%) (human, in vivo): 2 (11)
- Wound Dehiscence ≥G3 (%) (human, in vivo): 1 (5)
- ALT/AST Elevation All Grade (%) (human, in vivo, 6 weeks): 2 (11)
- ALT/AST Elevation ≥G3 (%) (human, in vivo, 6 weeks): 0 (0)
- Constipation All Grade (%) (human, in vivo, 6 weeks): 1 (5)
- Constipation ≥G3 (%) (human, in vivo, 6 weeks): 0 (0)
- Diarrhea All Grade (%) (human, in vivo, 6 weeks): 8 (42)
- Diarrhea ≥G3 (%) (human, in vivo, 6 weeks): 0 (0)
- Fatigue All Grade (%) (human, in vivo, 6 weeks): 7 (37)
- Fatigue ≥G3 (%) (human, in vivo, 6 weeks): 0 (0)
- Hypertension All Grade (%) (human, in vivo, 6 weeks): 3 (16)
- Hypertension ≥G3 (%) (human, in vivo, 6 weeks): 0 (0)
- Mucositis All Grade (%) (human, in vivo, 6 weeks): 2 (11)
- Mucositis ≥G3 (%) (human, in vivo, 6 weeks): 0 (0)
- Nausea/Vomiting All Grade (%) (human, in vivo, 6 weeks): 3 (16)
- Nausea/Vomiting ≥G3 (%) (human, in vivo, 6 weeks): 0 (0)
- Anemia All Grade (%) [4]: 2 (11)
- Anemia ≥G3 (%) [4]: 1 (5)
- Neutropenia All Grade (%) [4]: 10 (53)
- Neutropenia ≥G3 (%) [4]: 5 (26)
- Thrombocytopenia All Grade (%) [4]: 2 (11)
- Thrombocytopenia ≥G3 (%) [4]: 0 (0)
- Wound Dehiscence All Grade (%) [4]: 2 (11)
- Wound Dehiscence ≥G3 (%) [4]: 1 (5) ^#
- recommended dose (patients on ritonavir, 4 week on/2 week off schedule): 37.5 mg/day
- MTD (patients on ritonavir, daily, 4 weeks on/2 weeks off): 37.5 mg
- correlation between hand-foot syndrome and elevated Cmin,ss ([1]; Mann–Whitney U-test, p=0.013): There was a correlation
- Cmax ([1]; Ritonavir group, sunitinib 37.5 mg/day, Cycle 1 Day 1, mean±SD): 19.9±5.9 (6) ng/mL
- T1/2 ([1]; Ritonavir group, sunitinib 37.5 mg/day, actual values (n=2)): 86.8 h
- AUC(0-t) ([1]; human, in vivo, 37.5 mg/day): 338 ± 99 ng·h/mL
- fraction unbound ([1]; human, in vivo, 37.5 mg/day): 0.067 ± 0.021
- half-life ([1]; human, plasma, oral, 25 mg/day, T1/2, Ritonavir group, sunitinib 25 mg/day): 2.75 days
- Tmax ([1]; human, plasma, oral, 50 mg/day): 7.5 h
- half-life ([1]; human, plasma, oral, 50 mg/day, T1/2, NNRTI group, sunitinib 50 mg/day): 2.65 days
- objective response to therapy [3]: No patient experienced an objective response
